The results in this text go back to patent US20220274913A1, “PROCESS FOR MANUFACTURING A SUBSTITUTED CYCLOHEXANECARBONITRILE” (SOLVAY SA, priority 2019, published 2022).

Format in all cases: physicochemical
Series [1] in a line: Approx density of polar solvents at ambient temperature.
Series [2] can be described thus: TOC in the H2O2 obtained (solubility of the solvent in H2O2). Conditions: for Solubility of the solvent in H2O2 (as indicated by level of TOC in the H2O2 obtained): comparison in words, Table 2.
Series [3] can be described thus: Solubility tests of hydrogenated quinones (QH) in solvent mixtures (polar solvent + S-150), synthetic EQ/ETQ working solutions. To be noted: for Test level values (theoretical gH2O2/kg of WS), comparison in words: Table 1; for Test level (gH2O2/kg) measured at 50° C. / Test level (gH2O2/kg) measured at 55° C. / Test level (gH2O2/kg) measured at 60° C. / Test level (gH2O2/kg) measured at 65° C. / Test level (gH2O2/kg) measured at 70° C.: 34*QH/240. Here is the method: The determination of the QH solubility was performed on synthetic EQ/ETQ working solutions. These quinones mixed in the tested solvents have been hydrogenated to a fixed level and cooled down successively to 3 different temperatures before the measurement (min. 3 hours to stabilize the system between each measurement). The conditions applied for these tests were:
(*) the polar solvents tested were sextate, decanenitrile, 2,2,6-trimethylcyclohexanecarbonitrile (C10A), 2,2,5,6-tetramethylcyclohexanecarbonitrile (C11A) and 1,2,2,4-tetramethylcyclohexylcarbonitrile (C11B). […] In this Figure, Kb stands for the weight partition coefficient of hydrogen peroxide between the water and the working solution (mixture of quinones and organic solvents). It is calculated using the following formula: […]
The maximum solubility of a hydrogenated quinone (QH) in a solvent mixture is directly correlated with the productivity of the working solution. The higher is the QH solubility, the higher will be the theoretical quantity of hydrogen peroxide achievable per kg of WS (Productivity). These theoretical values, designated by the terms “Test level (gH2O2/kg of WS) measured at . . . ” in Table 1, were calculated as follows: […]
1 mole (240 g) ETQH (which actually is the QH in our Examples) per kg of WS will produce 1 mole (34 g) of H2O2 per kg of WS.

Series [4] can be described thus: Weight partition coefficient Kb of hydrogen peroxide between the water and the working solution; H2O2 in organic phase. Here is the method: (*) the polar solvents tested were sextate, decanenitrile, 2,2,6-trimethylcyclohexanecarbonitrile (C10A), 2,2,5,6-tetramethylcyclohexanecarbonitrile (C11A) and 1,2,2,4-tetramethylcyclohexylcarbonitrile (C11B). […] In this Figure, Kb stands for the weight partition coefficient of hydrogen peroxide between the water and the working solution (mixture of quinones and organic solvents). It is calculated using the following formula:
Kb=(g H2O2/kg aqueous phase)/(g H2O2/kg organic phase)

The mark [5] stands for this setting: Polar solvent 30% / Solvesso 150 70%.
The mark [6] stands for this setting: Polar solvent 40% / Solvesso 150 60%.
Setting [7] is: Polar solvent 50% / Solvesso 150 50%.
Setting [8] is: Polar solvent 60% / Solvesso 150 40%.
Setting [9] is: Polar solvent 70% / Solvesso 150 30%.
Setting [10] is: polar solvent 77% / S150 23%, listed as 4MCH-CN.

Entries after “also recorded” stand apart in the source; their conditions may differ.

As for `CC1CCC(C)(C)C(C#N)C1C` (stereo not shown) [C11A, 2,2,5,6-tetramethylcyclohexanecarbonitrile], in series [1], the “Approx density of polar solvents at amb T°” value (“Approx density” for short) is roughly 0.895 kg/L. Also, the “TOC in H2O2” value in series [2] (setting [5]) is 281 ppm; in series [2] (setting [6]) it was 268 ppm; in series [2] (setting [7]), 269 ppm; in series [2] (setting [8]), 274 ppm; in series [2] (setting [9]), 291 ppm. For the same molecule, in series [2], the “Solubility of the solvent in H2O2 (as indicated by level of TOC in the H2O2 obtained)” value is given as “less soluble in H2O2 than solvent C10A”. Moreover, in series [3], the “Test level values (theoretical gH2O2/kg of WS), comparison in words” value was “reach the absolute maximum theoretical value”. Besides, the “Test level (gH2O2/kg) measured at 50° C.” value in series [3] (polar solvent 50% / S150 50%) is given as 7.7 gH2O2/kg; in series [3] (polar solvent 77% / S150 23%) it was 11.9 gH2O2/kg. Besides, the “Test level (gH2O2/kg) measured at 55° C.” value was 8.6 gH2O2/kg in series [3] (polar solvent 50% / S150 50%) and 12.8 gH2O2/kg in series [3] (polar solvent 77% / S150 23%). For the same molecule, the figures for the “Test level (gH2O2/kg) measured at 60° C.” value in series [3] (polar solvent 50% / S150 50%), in series [3] (polar solvent 77% / S150 23%) and in series [3] (setting [10]) were 9.8 gH2O2/kg, 16.3 gH2O2/kg and “full soluble”, respectively. For the same molecule, the figures for the “Test level (gH2O2/kg) measured at 65° C.” value in series [3] (polar solvent 50% / S150 50%) and in series [3] (polar solvent 77% / S150 23%) were 10.8 gH2O2/kg and “full soluble”, respectively. Besides, the “Test level (gH2O2/kg) measured at 70° C.” value in series [3] (polar solvent 50% / S150 50%) is 14.8 gH2O2/kg; in series [3] (polar solvent 77% / S150 23%) it was “full soluble”. Moreover, the entries for the “QH (g/kg) measured at 60° C.” value in series [3] (polar solvent 77% / S150 23%) and in series [3] (setting [10]) were “complete solubility” and “full soluble”, respectively. In series [3] (polar solvent 77% / S150 23%), the “QH (g/kg) measured at 65° C.” value was “full soluble”. The “QH (g/kg) measured at 70° C.” value in series [3] (polar solvent 77% / S150 23%) is listed as “full soluble”. Also, the “H2O2 in OP” value in series [4] (setting [5]) is listed as 0.919 g/kg; in series [4] (setting [6]), 1.271 g/kg; in series [4] (setting [8]), 2.332 g/kg; in series [4] (setting [9]), 2.786 g/kg.

In the case of `CC1CCC(C)(C#N)C(C)(C)C1` (stereo not shown) [C11B, 1,2,2,4-tetramethylcyclohexanecarbonitrile], the “TOC in H2O2” value worked out at 308 ppm in series [2] (setting [6]), 328 ppm in series [2] (setting [7]), 280 ppm in series [2] (setting [8]) and 290 ppm in series [2] (setting [9]). Moreover, in series [2], the “Solubility of the solvent in H2O2 (as indicated by level of TOC in the H2O2 obtained)” value is “less soluble in H2O2 than solvent C10A”. In addition, the “Test level (gH2O2/kg) measured at 55° C.” value in series [3] (polar solvent 52% / S150 48%) came to 9.4 gH2O2/kg; in series [3] (polar solvent 70% / S150 30%) it was 15.5 gH2O2/kg. Besides, the “Test level (gH2O2/kg) measured at 60° C.” value in series [3] (polar solvent 52% / S150 48%) amounted to 10.8 gH2O2/kg. The “Test level (gH2O2/kg) measured at 65° C.” value in series [3] (polar solvent 52% / S150 48%) is 15.1 gH2O2/kg; in series [3] (polar solvent 70% / S150 30%) it was “full soluble”. Besides, the “QH (g/kg) measured at 70° C.” value in series [3] (polar solvent 52% / S150 48%) and in series [3] (polar solvent 70% / S150 30%) was “full soluble” throughout. Besides, the “Test level (gH2O2/kg) measured at 70° C.” value in series [3] (polar solvent 52% / S150 48%) and in series [3] (polar solvent 70% / S150 30%) was “full soluble” in each case. Moreover, the “QH (g/kg) measured at 60° C.” value in series [3] (polar solvent 70% / S150 30%) is reported as “complete solubility; also recorded: full soluble”. Moreover, in series [3] (polar solvent 70% / S150 30%), the “QH (g/kg) measured at 65° C.” value is given as “full soluble”. Also, the “H2O2 in OP” value amounted to 1.632 g/kg in series [4] (setting [6]), 2.487 g/kg in series [4] (setting [7]), 3.167 g/kg in series [4] (setting [8]) and 3.805 g/kg in series [4] (setting [9]).

For `CC1CCCC(C)(C)C1C#N` (stereo not shown) [C10A, 2,2,6-trimethylcyclohexanecarbonitrile], the “Approx density” value in series [1] was roughly 0.89 kg/L. For the same molecule, the “TOC in H2O2” value in series [2] (setting [5]) turned out to be 928 ppm; in series [2] (setting [6]) it was 1042 ppm; in series [2] (setting [7]) it was 1248 ppm; in series [2] (setting [8]) it was 1456 ppm; in series [2] (setting [9]), 1684 ppm. Moreover, the “Test level values (theoretical gH2O2/kg of WS), comparison in words” value in series [3] was “much higher (almost the double in fact) than with sextate or a linear nitrile like decanenitrile”. The “Test level (gH2O2/kg) measured at 60° C.” value in series [3] (polar solvent 50% / S150 50%) came out at 10.5 gH2O2/kg; in series [3] (polar solvent 60% / S150 40%), 15.6 gH2O2/kg. The “Test level (gH2O2/kg) measured at 65° C.” value in series [3] (polar solvent 50% / S150 50%) was 11.4 gH2O2/kg; in series [3] (polar solvent 60% / S150 40%), “full soluble”. Also, the “QH (g/kg) measured at 70° C.” value in series [3] (polar solvent 50% / S150 50%) and in series [3] (polar solvent 60% / S150 40%) was “full soluble” each time. In addition, the “Test level (gH2O2/kg) measured at 70° C.” value in series [3] (polar solvent 50% / S150 50%) and in series [3] (polar solvent 60% / S150 40%) was “full soluble” each time. In addition, the “QH (g/kg) measured at 65° C.” value in series [3] (polar solvent 60% / S150 40%) was “full soluble”. Besides, the “H2O2 in OP” value in series [4] (setting [5]) came to 0.9821 g/kg; in series [4] (setting [6]) it was 1.466 g/kg; in series [4] (setting [7]) it was 2.135 g/kg; in series [4] (setting [8]), 3.08 g/kg; in series [4] (setting [9]), 3.871 g/kg.

Consider `CCCCCCCCCC#N` [Decanenitrile, decanenitrile, reference compound], for which, in series [1], the “Approx density” value is roughly 0.83 kg/L. Further, in series [3] (polar solvent 35% / S150 65%), the “Test level (gH2O2/kg) measured at 60° C.” value is 8.8 gH2O2/kg, the “Test level (gH2O2/kg) measured at 65° C.” value was found to be 10.1 gH2O2/kg and the “Test level (gH2O2/kg) measured at 70° C.” value was found to be 11.1 gH2O2/kg.

“methyl cyclohexyl acetate [Sextate, reference compound]”: the “Approx density” value in series [1] was roughly 0.94 kg/L. Further, in series [3] (polar solvent 40% / S150 60%), the “QH (g/kg) measured at 60° C.” value turned out to be 52 g/kg, the “Test level (gH2O2/kg) measured at 60° C.” value came out at 7.4 gH2O2/kg, the “QH (g/kg) measured at 65° C.” value is on record as 60.8 g/kg and the “Test level (gH2O2/kg) measured at 65° C.” value was found to be 8.6 gH2O2/kg. Further, in series [3] (polar solvent 40% / S150 60%), the “QH (g/kg) measured at 70° C.” value is given as 68 g/kg and the “Test level (gH2O2/kg) measured at 70° C.” value was found to be 9.6 gH2O2/kg.
